Source: US20130316958A1 (University of Southern California, priority 2010, published 2013)
No end group written: not given here.

Assays:
Assay type in all cases: cell-based
[1] = test system: KSHV-infected TREX-BCBL-Vector cells; test: GFP-LC3 puncta autophagy assessment after peptide treatment; conditions: 30 or 50 μM peptide, 12 hr
Source text: (§1) The vFLIP α2 (10 aa) and α4 (12 aa) peptides that independently bound Atg3 at high efficiency were fused with the HIV-1 TAT protein transduction domain for intracellular delivery (Gump and Dowdy (2007) Trends Mol. Med. 13:443-448) and tested for their potential effects on autophagy induction. The K-α2 and K-α4 peptides contained KSHV vFLIP aa20-29 and aa128-139 regions, respectively, as retro-inverso versions to circumvent the proteolytic degradation. Mutant peptides K-α2m and K-α4m were also included, which replaced the hydrophobic core residues of the K-α2 (L21F22L23) and K-α4 (F130L-WVY139) peptides with alanines, as well as the C-α2 and C-α4 peptides containing the cFLIPs regions aa19-28 and aa128-139, respectively. At 12 hr post-transfection with GFP-LC3, KSHV-infected TREX-BCBL-Vector and TREX-BCBL-vFLIP cells were incubated with various concentrations of the peptides or rapamycin for an additional 12 hr, followed by an assessment of the GFP-LC3 puncta and cell death. […] Peptide-treated TREX-BCBL-Vector and TREX-BCBL-vFLIP cells were subjected to immunoblotting with αLC3 and aactin.

LC3-II in BCBL1 cells = test: Immunoblotting with αLC3 of peptide-treated cells; conditions: immunoblot
Source text: as §1

[2] = test system: mTor kinase activity in BCBL1 cells; test: Immunoblot of p70S6K and ribosomal protein S6 phosphorylation; conditions: treated BCBL1 cells
Method: Levels of phosphorylation of p70S6K and ribosomal protein S6 in BCBL1 cells were evaluated by immunoblotting with α-p70S6K, aphospho-specific p70S6K, aphospho-specific S6, or αactin.

[3] = test system: virus-associated or non-virus-associated lymphoma cells; test: Cell-type specificity of vFLIP peptide-induced death; conditions: 30 or 50 μM peptide overnight
Method: The potential cell-type specificity of the activity of the vFLIP peptides was assessed by treating virus-associated or non-virus-associated lymphoma cells with 30 or 50 μM of the K-α2 or the K-α4 peptide overnight and subsequently assessing death levels.

[4] = test system: KSHV-infected BCBL1 cells; test: Combinatory treatment with rapamycin and peptide; conditions: 25 nM rapamycin and 20 μM peptide, versus rapamycin or peptide alone
ALL cells = test: Tumor cell viability by trypan blue exclusion, ALL cells; conditions: for anticancer activity in ALL cell lines: BV-173 and SUP-B15, FIG. 5
Method: (§2) Tumor cells were treated with peptides at various concentrations for 12 hours and their viability measured by trypan blue exclusion, followed by analyses using the Beckman Coulter Z2 Particle Count and Size Analyzer (BC Z2 CS Analyzer). A minimum of 100 cells per sample using triplicate samples was counted per condition per experiment.

[5] = test system: human T cell lymphoblast-like cells, Jurket T; test: Tumor cell viability by trypan blue exclusion, Jurket T; conditions: FIG. 6A
Method: as §2

[6] = test system: human erythromyeloblastoid leukemia cells, K562; test: Tumor cell viability by trypan blue exclusion, K562; conditions: FIG. 6B
Method: as §2

LNCap cells = test: Tumor cell viability, LNCap prostate cancer line
Method: as §2

293T cells = test: Tumor cell viability, 293T cells; conditions: FIG. 7B
Method: as §2

HCT116 = test: Tumor cell viability, HCT116 colon cancer line; conditions: FIG. 7C
Method: as §2

TREX-BCBL cells = test: vFLIP expression in KSHV-infected BCBL1 cells: autophagy, growth suppression and death; conditions: ectopic expression in BCBL1 cells
Method: To investigate whether vFLIP expression suppresses autophagy in virus-infected cells, a KSHV-infected BCBL1 cell line was constructed (TREX-BCBL) in which a Flag-tagged KSHV-vFLIP gene was integrated into the chromosomal DNA under the control of a tetracycline-inducible promoter. (Nakamura et al. (2003) J. Virol. 77:4205-4220). At 12-16 hr post-transfection with GFP-LC3, TREX-BCBL-Vector and TREX-BCBL-vFLIP cells were treated with Doxycycline for 24 hr, followed by incubation with 2 μM rapamycin for an additional 12 hr. The detection of GFP-LC3 and autophagy levels was performed as described above, vFLIP expression was detected by IB with anti-Flag, and autophagosomes were visualized by scanning EM (scale bar=50 nm). Treatment of these cells with doxycycline strongly activated Flag-vFLIP expression.
The effect of vFLIP on autophagy was tested in a KSHV-infected BCBL1 cell line. TREX-BCBL-Vector and TREX-BCBL-vFLIP cells were treated with rapamycin or left untreated for 6 days in the presence of doxycycline and subjected to scanning EM, to examine the morphologies of over 100 dead cells and quantify cell death for apoptosis and autophagic death, or subjected to PI staining and cell cycle analysis.
All siRNAs were produced by Dharmacon Research. siRNAs specific for human Beclin1 (5′[…]3′) and a nonspecific scrambled control siRNA were transfected using DharmaFect reagent (Dharmacon) according to the manufacturer's instructions. At 48-72 hr post-transfection, cells were analyzed for autophagy. Trypan blue staining and a Beckman Coulter Z2 Particle Count and Size analyzer were used to determine cell death (as a percentage) at day 5.

NIH3T3 cells = test: TNFα-induced apoptosis by PI staining and flow cytometry; conditions: CHX and TNF-α 12 hr
Source text: To determine the effects of the interactions of vFLIP with FADD, IKKαβγ, and 14-3-3σ on anti-autophagy activity, NIH3T3 cells stably expressing various vFLIP mutants were constructed: m14-3-3σ, which lacks 14-3-3σ-binding; mTRAF2, which lacks TRAF2-binding (Guasparri et al. (2006) EMBO Rep. 7:114-119); 67AAA and 58AAA, which have reduced NF-κB activation (Matta and Chaudhary (2004) Proc. Natl. Acad. Sci. USA 101:9399-9404); and mFADD, which lacks FADD-binding (Yang et al. (2005) Mol. Cell. 20:939-949). These cells were treated with either cyclohexamide (CHX) alone or CHX and TNF-α for 12 hr or with 2 μM rapamycin for 3 hr. Propidium iodide (PI) staining and flow cytometry analysis were performed to determine apoptosis levels. Alternatively, NIH3T3 cells containing vector, KSHV vFLIP, or its mutants were transfected with an NF-κB-luciferase reporter construct and a control renilla luciferase plasmid, pRL-SV40 (Promega). At 48 hr post-transfection, luciferase activity was measured with a luminometer using a dual luciferase assay kit (Promega) and normalized with renilla luciferase activity to determine transfection efficiency. GFP-LC3 puncta were detected using an inverted fluorescence microscope and the autophagy levels quantified as means (±SD) of the results from three independent experiments.

Row | Molecule | autophagy induction (GFP-LC3 puncta) [1] | amount of LC3-II (LC3-II in BCBL1 cells) | phosphorylation of p70S6K [2] | phosphorylation of ribosomal protein S6 [2] | cell death by lymphoma cell type [3] | growth suppression and cell death in combination with rapamycin [4] | anticancer activity in ALL cell lines (ALL cells) | cell death in ALL cells (ALL cells; TAT linked peptide, 30 μM and 50 μM, compared to TAT alone, FIG. 1) | cell death in Jurket T [5] | cell death in K562 [6] | anticancer activity in LNCap cells (LNCap cells; FIG. 7A) | anticancer activity in LNCaP cells (cell count and relative luminescence) (LNCap cells; FIG. 8) | anticancer activity in 293T cells (293T cells) | anticancer activity in HCT116 (HCT116) | block of rapamycin- or zVAD-induced growth suppression and autophagic death (TREX-BCBL cells) | block of TNFα-induced apoptosis (NIH3T3 cells)
1 | RRRQRRKKRGY-G-NEMCYVWHLFTQ (RRRQRRKKRGYGNEMCYVWHLFTQ; not fully specified) [K-α4, HIV-1 TAT-fused retro-inverso peptide containing KSHV vFLIP aa128-139] | able to induce autophagy in TREX-BCBL-Vector cells as effectively as 2 μM rapamycin | A high amount of LC3-II was detected | marginal reduction | remained unaffected | broadly targeted most lymphoma cells, resulting in varying degrees of cell death | marked increase of growth suppression and cell death | significant anticancer activities | induced cell deaths in various ALL cells | induced cell death | induced cell death | anticancer activities | confirms the anticancer activities | anticancer activities | anticancer activities | – | –
2 | RRRQRRKKRGY-G-FVNLLFLVVE (RRRQRRKKRGYGFVNLLFLVVE; not fully specified) [K-α2, HIV-1 TAT-fused retro-inverso peptide containing KSHV vFLIP aa20-29] | able to induce autophagy in TREX-BCBL-Vector cells as effectively as 2 μM rapamycin | A high amount of LC3-II was detected | marginal reduction | remained unaffected | primarily targeted KSHV-infected PEL cells (BCBL1, BCP-1, and BC-3), but not KSHV/EBV-coinfected PEL cells (BC-1 and JSC-1), EBV-immortalized Bob-B cells, nor non-virus-associated lymphoma cells (BJAB, K562 and Jurkat-T) | marked increase of growth suppression and cell death | significant anticancer activities | – | – | – | – | – | – | – | – | –
3 | mFADD (protein, UniProt Q61160 1-205, looked up) FAS-associated death domain …: MDPFLVLLHSLSGSLSGNDLMELKFLCRERVSKRKLERVQSGLDLFTVLLEQNDLERGHTGLLRELLASLRRHDLLQRLDDFEAGTATAAPPGEADLQVAFDIVCDNVGRDWKRLARELKVSEAKMDGIEEKYPRSLSERVRESLKVWKNAEKKNASVAGLVKALRTCRLNLVADLVEEAQESVSKSENMSPVLRDSTVSSSETP | – | – | – | – | – | – | – | – | – | – | – | – | – | – | almost completely blocked | either poorly blocked TNFα-induced apoptosis or no longer block it at all
